Assay results reported in US7750017B2, “Heterocycles” (Bayer Schering Pharma Aktiengesellschaft, priority 2004, dated 2010).

Experiments:
[1] = system: BT474 [human breast carcinoma, overexpressing HER2 (ErbB2)]; assay: In vitro tumor cell proliferation assay (Cell Titer-Glo luminescent cell viability), BT474 cells; assay type: cell-based; settings: BT-474, 72 h, 72 hours of drug exposure, Cell Titer-Glo readout, read-out: IC50, anti-proliferative activity in BT474 cells
[2] = system: A431 cells [human epidermoid carcinoma, overexpressing HER1 (EGFR, ErbB1)]; assay: In vitro tumor cell proliferation assay (Cell Titer-Glo luminescent cell viability), A431 cells; assay type: cell-based; settings: A-431, 72 h, 72 hours of drug exposure, Cell Titer-Glo readout, read-out: IC50, anti-proliferative activity in A431 cells

| IC50 [1] | IC50 [2] | SMILES |
| --- | --- | --- |
| ≤ 5000 nM | ≤ 5 µM | CN(C)[C@H]1CCN(C(=O)CCc2ccc3c(c2)sc2ncnc(Nc4ccc(OCc5cccc(F)c5)c(Cl)c4)c23)C1 [Example 68, N-{3-chloro-4-[(3-fluorobenzyl)oxy]phenyl}-7-{3-[(3S)-3-(dimethylamino)pyrrolidin-1-yl]-3-oxopropyl} [1]benzothieno[2,3-d]pyrimidin-4-amine] |
| ≤ 500 nM | ≤ 50 µM | OC/C=C/c1ccc2c(c1)sc1ncnc(Nc3ccc(OCc4cccc(F)c4)c(Cl)c3)c12 [Example 61, (2E)-3-[4-({3-chloro-4-[(3-fluorobenzyl)oxy]phenyl}amino)[1]benzothieno[2,3-d]pyrimidin-7-yl]prop-2-en-1-ol] |
| ≤ 500 nM | ≤ 5 µM | Clc1cc(Nc2ncnc3sc4cc(CCBr)ccc4c23)ccc1OCc1ccccn1 [Example 83, 7-(2-bromoethyl)-N-[3-chloro-4-(pyridin-2-ylmethoxy)phenyl][1] benzothieno[2,3-d]pyrimidin-4-amine] |
| ≤ 500 nM | ≤ 5 µM | CN1CCN(CCc2ccc3c(c2)sc2ncnc(Nc4ccc5c(cnn5Cc5cccc(F)c5)c4)c23)CC1 [Example 128, N-[1-(3-fluorobenzyl)-1H-indazol-5-yl]-7-[2-(4-methylpiperazin-1-yl)ethyl][1]benzothieno[2,3-d] pyrimidin-4-amine] |
